Results from ChEMBL document CHEMBL4613323, “Factor H-Inspired Design of Peptide Biomarkers of the Complement C3d Protein” (ACS Med Chem Lett, 2020).
pKd: −log10 of the molar value.

Molecular target: Complement C3 (Homo sapiens, UniProt P01024)
Assay: Binding affinity to recombinant human C3d assessed as dissociation constant incubated for 5 mins by microscale thermophoresis assay

Chain of Complement C3 (P01024 23-667 limits assumed): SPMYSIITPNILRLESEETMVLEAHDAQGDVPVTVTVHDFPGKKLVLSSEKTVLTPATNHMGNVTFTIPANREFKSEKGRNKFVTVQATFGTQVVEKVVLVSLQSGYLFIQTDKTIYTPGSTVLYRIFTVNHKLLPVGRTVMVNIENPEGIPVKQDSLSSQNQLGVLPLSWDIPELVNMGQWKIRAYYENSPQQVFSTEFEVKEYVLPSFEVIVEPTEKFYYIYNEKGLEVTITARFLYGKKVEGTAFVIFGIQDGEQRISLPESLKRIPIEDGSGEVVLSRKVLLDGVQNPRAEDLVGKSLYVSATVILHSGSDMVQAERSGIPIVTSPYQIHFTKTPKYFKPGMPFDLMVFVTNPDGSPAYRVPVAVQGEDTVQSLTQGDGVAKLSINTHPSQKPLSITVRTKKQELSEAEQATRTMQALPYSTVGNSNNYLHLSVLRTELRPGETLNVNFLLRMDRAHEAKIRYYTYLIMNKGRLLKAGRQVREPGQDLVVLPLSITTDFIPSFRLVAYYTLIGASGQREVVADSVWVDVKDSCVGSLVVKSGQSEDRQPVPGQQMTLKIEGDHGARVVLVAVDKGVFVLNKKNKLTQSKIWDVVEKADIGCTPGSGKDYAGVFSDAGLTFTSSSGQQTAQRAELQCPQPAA
Chain of Complement C3 (P01024 672-1663 limits assumed): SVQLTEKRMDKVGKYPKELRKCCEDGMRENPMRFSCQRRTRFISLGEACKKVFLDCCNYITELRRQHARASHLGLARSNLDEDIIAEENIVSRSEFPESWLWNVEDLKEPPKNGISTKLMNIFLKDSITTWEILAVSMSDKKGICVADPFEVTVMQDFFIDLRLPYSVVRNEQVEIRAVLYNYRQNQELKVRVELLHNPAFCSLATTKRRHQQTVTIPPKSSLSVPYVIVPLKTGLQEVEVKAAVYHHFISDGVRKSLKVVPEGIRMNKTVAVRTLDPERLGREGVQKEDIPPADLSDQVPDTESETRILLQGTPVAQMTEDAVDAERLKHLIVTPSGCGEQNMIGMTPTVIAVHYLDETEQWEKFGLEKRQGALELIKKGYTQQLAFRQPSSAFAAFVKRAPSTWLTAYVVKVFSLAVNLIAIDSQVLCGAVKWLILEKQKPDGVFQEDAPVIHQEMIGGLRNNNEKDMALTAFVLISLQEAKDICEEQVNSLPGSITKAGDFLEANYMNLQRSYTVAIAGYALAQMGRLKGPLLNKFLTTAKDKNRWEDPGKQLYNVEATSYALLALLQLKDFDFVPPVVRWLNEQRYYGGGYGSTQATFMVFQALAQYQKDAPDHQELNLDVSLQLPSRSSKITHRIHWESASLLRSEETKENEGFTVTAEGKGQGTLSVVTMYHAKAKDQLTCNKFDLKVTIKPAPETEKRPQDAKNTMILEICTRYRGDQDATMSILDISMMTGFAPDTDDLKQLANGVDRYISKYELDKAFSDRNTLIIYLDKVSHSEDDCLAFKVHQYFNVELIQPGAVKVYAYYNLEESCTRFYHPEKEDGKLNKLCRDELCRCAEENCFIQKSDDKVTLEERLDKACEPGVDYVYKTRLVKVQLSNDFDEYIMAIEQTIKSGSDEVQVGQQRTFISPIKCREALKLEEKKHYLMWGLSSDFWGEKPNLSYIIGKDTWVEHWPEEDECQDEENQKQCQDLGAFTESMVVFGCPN

SMILES: CC(=O)NCC(=O)N[C@H]1CSSC[C@@H](C(=O)NCC(N)=O)NC(=O)[C@H](CCCNC(=N)N)NC(=O)[C@H](Cc2ccc(O)cc2)NC(=O)CNC(=O)[C@H](CCCNC(=N)N)NC(=O)[C@H](CCCCN)NC1=O (stereo in doubt; form 2)
- pKd: 4.21
